Experiments:
solid tumor cell lines = assay: Cell viability panel, solid tumor cell lines
Experimental: (§3) Cells were cultured at 37° C. with 5% CO2 in a humid incubator.
(§4) Cell viability was assessed with the CellTiter96® Aqueous Non-Radioactive Assay kit according to manufactures' instructions (Promega).
(§5) The effects of clioquinol on the viability of acute leukemia/lymphoma (n=7), myeloma (n=14), and solid tumor (n=5) cell lines as well as primary AML samples (n=6) and primary normal hematopoietic cells (n=3) was tested.

[1] = Copper binding: stability constant and Cu:ligand ratio; assay type: physicochemical
myeloma cell lines = assay: Cell viability panel, myeloma cell lines; settings: read-out: IC50, induced cell death
Experimental: as §3, §4, §5

A549 lung cancer cells = assay: Cell viability MTS assay, A549; assay type: cell-based; settings: 72 hours
Experimental: (§1) LP-1 myeloma cells, MDAY-D2 murine leukemia/lymphoma cells, and OCI-AML2 human leukemia cells and A549 lung cancer cells were treated with increasing concentrations of compounds 5AHQ, HNQ, BCQ, COQ, and DiiodoQ (Table 1). 72 hours after incubation, cell viability was determined by an MTS assay. […] . Given the effects on cultured cells, 5AHQ was evaluated in a mouse model of leukemia. K562 cells were injected subcutaneously into NOD SCID mice. […] .

p21 and p27 = p21 and p27 expression in myeloma and leukemia cells; assay type: cell-based; settings: low micromolar concentrations
Experimental: To prepare cytosolic extracts, NIH3T3 cells and myeloma cells were washed with phosphate-buffered saline (PBS, pH 7.4) and suspending in lysis buffer [10 mM Tris (pH 7.4), 150 mM NaCl, 0.1% Triton X-100, 0.5% sodium deoxycholate, and 5 mM EDTA] containing protease inhibitors (Complete tablets, Roche, Indianapolis, Ind.). Protein concentrations were determined by the Bradford assay. Immunoblot assays were performed by subjecting equal amounts of protein to SDS-PAGE gels followed by transfer to Nitrocellulose membranes. Membranes were probed with polyclonal rabbit anti-human cyclin D2 (0.5 μg/ml, both from Santa Cruz Biotech, Santa Cruz, Calif.), or monoclonal mouse-anti human p21 (1:200 v/v, Santa Cruz Biotech), monoclonal mouse-anti human p27 (1:2,500 v/v BD Transduction Laboratories), polyclonal mouse-anti human ubiquitin (1:2,000 v/v Calbiochem) and monoclonal mouse-anti-β-actin (1:10,000 v/v) (Sigma, St. Lois, Mo.). […] Detection was performed by the Enhanced Chemical Luminescence (ECL) method (Pierce, Rockford, Ill.).
Cyclin D2 is over-expressed in multiple myeloma (MM) and a subset of high-risk patients with acute myeloid leukemia (AML), contributing to their pathogenesis and chemoresistance (17, 18) (19). […] Sixteen hours after the addition of the compounds, luciferase expression was measured as a marker of cyclin D2 transactivation. […]

[2] = system: MDAY-D2 murine leukemia/lymphoma cells; assay: Cell viability MTS assay, MDAY-D2; assay type: cell-based; settings: 72 hours
Experimental: as §1

20S proteasome = biological target: T1, 20S proteasome (Homo sapiens, UniProt P28074); assay: Proteasome activity (chymotrypsin-like, Suc-LLVY-AMC); assay type: biochemical
T1 construct: Cellular proteins were extracted from cells with lysis buffer; endogenous in cells
T1 sequence (P28074 60-263): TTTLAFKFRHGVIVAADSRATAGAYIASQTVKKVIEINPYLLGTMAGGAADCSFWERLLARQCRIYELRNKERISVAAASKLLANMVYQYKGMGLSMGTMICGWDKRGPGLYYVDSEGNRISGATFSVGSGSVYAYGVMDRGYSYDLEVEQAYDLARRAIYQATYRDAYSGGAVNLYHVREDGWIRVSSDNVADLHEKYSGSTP
Experimental: Cellular proteins were extracted from cells with lysis buffer (50 mM HEPES pH 7.5, 150 mM NaCl, 2 mM ATP, and 1% Triton X-100). The chymotrypsin-like activity of the proteasome was measured by incubating equal amounts of protein with the preferential chymotrypsin-like substrate Suc-LLVY-AMC in assay buffer (50 mM Tris-HCl, pH 7.5, 150 mM NaCl) for two hours. After incubation, […] and the rate of free AMC was measured over time with a florescent spectrophotometric plate reader (excitation=380 nm, emission=460 nm).

[3] = system: MDAY-D2 leukemia/lymphoma cells; assay type: in vivo, mice; settings: oral 100 mg/kg twice daily, 10 days
Experimental: DBA-2 mice were injected intraperitoneally with MDAY-D2 murine leukemia cells. Mice were then treated twice daily by oral gavage with clioquinol (100 mg/kg) dissolved in intralipid or intralipid control. Ten days after treatment, mice were sacrificed, the intraperitoneal tumor excised, and the weight and volume of the tumor measured.
Given the effects on leukemia and lymphoma cell lines and primary patient samples, the compounds were tested in a leukemia/lymphoma xenograft model. MDAY-D2 leukemia/lymphoma cells were injected intraperitoneally into DBA2 mice. Mice were then treated twice daily with oral clioquinol (100 mg/kg) for 10 days. Ten days after treatment, mice were sacrificed and the weight and volume of the intraperitoneal tumor was measured. […] Similar results were obtained with a K562 leukemia, MDAY-D2 leukemia/lymphoma and OCI AML2 human leukemia xenograft (FIG. 4) K562 leukemia, MDAY-D2 leukemia/lymphoma or OCI AML2 human leukemia cells were injected subcutaneous into sublethally irradiated NOD-Scid mice. Animals were subsequently treated with 5AHQ. The 5AHQ treatment was initiated when tumors reached volumes of 200 mm^3 at which time mice were randomized to receive 100 mg/kg of 5AHQ (treated group) or buffer control (untreated group) for 5 of 7 days. […]

[4] = system: acute leukemia/lymphoma cell lines; assay: Cell viability panel, acute leukemia/lymphoma cell lines; settings: read-out: IC50, induced cell death
Experimental: as §3, §4, §5

LP-1 myeloma cells = assay: Cell viability MTS assay, LP1; assay type: cell-based; settings: 72 hours
Experimental: as §1

[5] = system: OCI-AML2 human leukemia cells; assay: Cell viability MTS assay, AML2; assay type: cell-based; settings: 72 hours
Experimental: as §1

proteasome = biological target: T2, proteasome (Homo sapiens, UniProt P28074); assay: Proteasome inhibition in cells; settings: resistant cells (for clioquinol including normal hematopoietic cells)
T2 sequence (P28074 60-263): T1 sequence (P28074 60-263)
Experimental: Cellular proteins were extracted from cells with lysis buffer (50 mM HEPES pH 7.5, 150 mM NaCl, 2 mM ATP, and 1% Triton X-100). The chymotrypsin-like activity of the proteasome was measured by incubating equal amounts of protein with the preferential chymotrypsin-like substrate Suc-LLVY-AMC in assay buffer (50 mM Tris-HCl, pH 7.5, 150 mM NaCl) for two hours. After incubation, was added and the rate of free AMC was measured over time with a florescent spectrophotometric plate reader (excitation=380 nm, emission=460 nm).

[6] = system: primary normal hematopoietic cells; assay: Cell viability, primary normal hematopoietic cells; assay type: cell-based; settings: forty-eight hours
[7] = after oral administration, patients; cited from earlier work
cyclin D2 promoter = assay: High throughput screen for inhibitors of cyclin D2 transactivation (luciferase); assay type: cell-based, Mouse; settings: NIH3T3 cells with c-maf; ~5 μM; sixteen hours
Description: The promoter of cyclin D2 (−894 to −4), containing c-maf responsive element sequence (MARE), was cloned from HeLa cell genomic DNA and subcloned into the pGL2 luciferase reporter vector (Promega, Madison, Wis.). This construct was co-transfected with pcDNA3.1 containing a neomycin resistance gene into NIH3T3 wild type cells and NIH3T3 cells stably over-expressing c-maf-IRES-GFP. Cells stably expressing c-maf, GFP, and luciferase were selected for further application.
NIH3T3 cells stably expressing c-maf and the cyclin D2 promoter driving luciferase (13,000 cells per well) were plated in 96-well plates by the Biomek FX liquid handler (Beckman, Fullerton, Calif.). The same workstation was used for plate formatting and reagent distribution. […] After incubation, cyclin D2 transactivation was assessed by the luciferase assay and viability was assessed by the MTS assay.
Luciferase activity was assessed according to the manufacturer's instructions (Promega, Madison, Wis.). […] After 10 min incubation, an equal volume of Bright-Glo Luciferase substrate (Promega) was added and the luminescence signal was detected with a 96-well Luminoskan luminescence plate reader (Thermo Labsystem, Waltham, Mass.) with a 5 second integration. […]

[8] = system: primary AML patient samples; assay: Cell viability, primary AML samples; assay type: cell-based; settings: Homo sapiens; in 6/7 primary AML patient samples; forty-eight hours; read-out: IC50, induced cell death
[9] = system: myeloma and leukemia cells; assay: Cell cycle analysis; assay type: cell-based; settings: low micromolar concentrations
Experimental: Cells were harvested, washed with cold PBS, suspended in 70% cold ethanol and incubated overnight at −20° C. Cells were then treated with 100 ng/ml of DNase-free RNase (InvitroGen) at 37° C. for 30 min, washed with cold PBS, and resuspended in PBS with 50 μg/ml of propidium iodine. DNA content was analyzed by flow cytometry (FACSCalibur, Becton Dickinson, Florida, USA). The percentage of cells in each phase of the cell cycle was calculated with ModiFit software (Becton Dickinson).
Cyclin D2 is over-expressed in multiple myeloma (MM) and a subset of high-risk patients with acute myeloid leukemia (AML), contributing to their pathogenesis and chemoresistance (17, 18) (19). One of the regulators of cyclin D2 is the oncogene c-maf that is also frequently over-expressed in MM (27). Therefore, it was sought to identify c-maf dependent and independent inhibitors of cyclin D2. To identify such small molecule inhibitors, a high throughput chemical genomics screen was developed. […] Sixteen hours after the addition of the compounds, luciferase expression was measured as a marker of cyclin D2 transactivation. […]

[10] = system: OCI AML2 human leukemia cells; assay: OCI AML2 xenograft in NOD-Scid mice; assay type: in vivo; settings: OCI AML2 subcutaneous; 100 mg/kg for 5 of 7 days
Experimental: (§2) Given the effects on leukemia and lymphoma cell lines and primary patient samples, the compounds were tested in a leukemia/lymphoma xenograft model. MDAY-D2 leukemia/lymphoma cells were injected intraperitoneally into DBA2 mice. Mice were then treated twice daily with oral clioquinol (100 mg/kg) for 10 days. Ten days after treatment, mice were sacrificed and the weight and volume of the intraperitoneal tumor was measured. […] Similar results were obtained with a K562 leukemia, MDAY-D2 leukemia/lymphoma and OCI AML2 human leukemia xenograft (FIG. 4) K562 leukemia, MDAY-D2 leukemia/lymphoma or OCI AML2 human leukemia cells were injected subcutaneous into sublethally irradiated NOD-Scid mice. Animals were subsequently treated with 5AHQ. The 5AHQ treatment was initiated when tumors reached volumes of 200 mm^3 at which time mice were randomized to receive 100 mg/kg of 5AHQ (treated group) or buffer control (untreated group) for 5 of 7 days. Caliper measurements were performed twice weekly to estimate tumor volume and differences compared between treated and untreated groups.

[11] = system: K562 human leukemia cells; assay: K562 leukemia xenograft in NOD/SCID mice; assay type: in vivo
Experimental: Sublethally irradiated (3.54 Gy) NOD/SCID mice were injected subcutaneously with K562 human leukemia cells. One week later, mice were then treated daily by oral gavage with 5AHQ (50 mg/kg) in water. Three weeks after injection of cells, mice were sacrificed, the subcutaneous tumor excised, and the weight and volume of the tumor measured.
as §2
LP-1 myeloma cells, MDAY-D2 murine leukemia/lymphoma cells, and OCI-AML2 human leukemia cells and A549 lung cancer cells were treated with increasing concentrations of compounds 5AHQ, HNQ, BCQ, COQ, and DiiodoQ (Table 1). 72 hours after incubation, cell viability was determined by an MTS assay. […]. Given the effects on cultured cells, 5AHQ was evaluated in a mouse model of leukemia. K562 cells were injected subcutaneously into NOD SCID mice. […].

[12] = system: MDAY-D2 leukemia/lymphoma; assay: MDAY-D2 subcutaneous tumor in NOD-Scid mice; assay type: in vivo; settings: 100 mg/kg for 5 of 7 days
Experimental: as §2

| SMILES | K (stability) [1] | IC50 (myeloma cell lines) | LD50 whole cell, A549 (A549 lung cancer cells) | LD50 whole cell, MDAY-D2 [2] | IC50 (20S proteasome) | IC50 [4] | LD50 whole cell, LP1 (LP-1 myeloma cells) | LD50 whole cell, AML2 [5] | other results |
| --- | --- | --- | --- | --- | --- | --- | --- | --- | --- |
| Oc1c(I)cc(Cl)c2cccnc12 [Clioquinol, 5-chloro-7-iodo-8-hydroxyquinoline, reference compound] | 9.06 | < 20 µM | 250 μm | 15.6 μm | 12.5 µM | < 20 µM | 31.25 μm | 3.9 μm | cell lines with induced cell death at IC50<20 μM (solid tumor cell lines; solid tumor, forty-eight hours): 0/5; p21 and p27 expression (p21 and p27): increased expression of p21 and p27; tumor progression [3]: delayed tumor progression; proteasomal inhibition in compound-resistant cells (proteasome): no proteasomal inhibition was detected; samples with induced cell death at IC50<20 μM [6]: 0/3; trough serum concentration [7]: 20 µM; inhibition of cyclin D2 promoter (luciferase) (cyclin D2 promoter): c-maf independent inhibitors of the cyclin D2 promoter; IC50 [8]: < 20 µM; cell cycle effect [9]: arrested cells in the G1 phase |
| Nc1ccc(O)c2ncccc12 [5AHQ, 5-amino-8-hydroxyquinoline] | 9.84 | < 15 µM | 31.25 μm | 7.8 μm | – | < 15 µM | 12.5 μm | 3.9 μm | IC50 (solid tumor cell lines; read-out: IC50, induced cell death): < 15 µM; tumor growth (volume) [10]: delayed tumor growth; tumor weight and volume ([11]; 50 mg/kg in water, oral gavage, three weeks after injection of cells): reduced tumor weight and volume; tumor growth (volume) ([11]; K562 subcutaneous, 100 mg/kg for 5 of 7 days): delayed tumor growth; efficacy dose in mice xenografts ([11]; mouse, in vivo): 50 mg/kg/day; toxicity ([11]; mouse, in vivo): No significant toxicity; tumor growth (volume) [12]: delayed tumor growth |
| Oc1ccc(Cl)c2cccnc12 [COQ, 5-chloro-8-hydroxyquinoline] | 8.89 | – | 62.5 μm | 3.9 μm | 62.5 µM | – | 31.25 μm | 3.9 μm | – |
| Oc1c(Br)cc(Cl)c2cccnc12 [BCQ, 7-bromo-5-chloro-8-hydroxyquinoline] | 10.24 | – | – | – | 15.6 µM | – | 31.25 μm | – | – |
| Oc1c(I)cc(I)c2cccnc12 [DiiodoQ, reference compound] | – | – | 250 μm | 31.25 μm | > 1000 µM | – | – | 62.5 μm | – |
| O=[N+]([O-])c1ccc(O)c2ncccc12 [HNQ, 8-hydroxy-5-nitroquinoline] | 9.13 | – | – | – | 15.6 µM | – | 15.6 μm | – | – |

Source: patent US20110144155A1, “8-HYDROXYQUINOLINE DERIVATIVES FOR THE TREATMENT OF HEMATOLOGICAL MALIGNANCIES” (priority 2008, published 2011)
